The target in this test is human KDR protein in HEK-293 cells (Homo sapiens (Human), UniProt P35968). Put plainly: KDR Cell Assay (phospho-KDR in HEK-293 cells expressing inducible KDR). It counts as cell-based. The conditions noted are these: pKDR Cell HEK 10% FBS IC50, HEK-293 cells expressing inducible KDR, VEGF stimulated. The procedure, abridged:
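HEK-293 cells with inducible human KDR were treated with compound for 1 h in DMEM (0.25% DMSO final), then lysed. Phospho-KDR was quantified by Meso Scale immunoassay, expressed as percent of control, and IC50 taken where a 4-parameter logistic fit crossed 50 POC.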

Counter-ions that a name gives are not always drawn.

The values below come from US10023570B2 (Array BioPharma, Inc., priority 2015, dated 2018).

Chain of human KDR protein in HEK-293 cells (P35968 20-1356): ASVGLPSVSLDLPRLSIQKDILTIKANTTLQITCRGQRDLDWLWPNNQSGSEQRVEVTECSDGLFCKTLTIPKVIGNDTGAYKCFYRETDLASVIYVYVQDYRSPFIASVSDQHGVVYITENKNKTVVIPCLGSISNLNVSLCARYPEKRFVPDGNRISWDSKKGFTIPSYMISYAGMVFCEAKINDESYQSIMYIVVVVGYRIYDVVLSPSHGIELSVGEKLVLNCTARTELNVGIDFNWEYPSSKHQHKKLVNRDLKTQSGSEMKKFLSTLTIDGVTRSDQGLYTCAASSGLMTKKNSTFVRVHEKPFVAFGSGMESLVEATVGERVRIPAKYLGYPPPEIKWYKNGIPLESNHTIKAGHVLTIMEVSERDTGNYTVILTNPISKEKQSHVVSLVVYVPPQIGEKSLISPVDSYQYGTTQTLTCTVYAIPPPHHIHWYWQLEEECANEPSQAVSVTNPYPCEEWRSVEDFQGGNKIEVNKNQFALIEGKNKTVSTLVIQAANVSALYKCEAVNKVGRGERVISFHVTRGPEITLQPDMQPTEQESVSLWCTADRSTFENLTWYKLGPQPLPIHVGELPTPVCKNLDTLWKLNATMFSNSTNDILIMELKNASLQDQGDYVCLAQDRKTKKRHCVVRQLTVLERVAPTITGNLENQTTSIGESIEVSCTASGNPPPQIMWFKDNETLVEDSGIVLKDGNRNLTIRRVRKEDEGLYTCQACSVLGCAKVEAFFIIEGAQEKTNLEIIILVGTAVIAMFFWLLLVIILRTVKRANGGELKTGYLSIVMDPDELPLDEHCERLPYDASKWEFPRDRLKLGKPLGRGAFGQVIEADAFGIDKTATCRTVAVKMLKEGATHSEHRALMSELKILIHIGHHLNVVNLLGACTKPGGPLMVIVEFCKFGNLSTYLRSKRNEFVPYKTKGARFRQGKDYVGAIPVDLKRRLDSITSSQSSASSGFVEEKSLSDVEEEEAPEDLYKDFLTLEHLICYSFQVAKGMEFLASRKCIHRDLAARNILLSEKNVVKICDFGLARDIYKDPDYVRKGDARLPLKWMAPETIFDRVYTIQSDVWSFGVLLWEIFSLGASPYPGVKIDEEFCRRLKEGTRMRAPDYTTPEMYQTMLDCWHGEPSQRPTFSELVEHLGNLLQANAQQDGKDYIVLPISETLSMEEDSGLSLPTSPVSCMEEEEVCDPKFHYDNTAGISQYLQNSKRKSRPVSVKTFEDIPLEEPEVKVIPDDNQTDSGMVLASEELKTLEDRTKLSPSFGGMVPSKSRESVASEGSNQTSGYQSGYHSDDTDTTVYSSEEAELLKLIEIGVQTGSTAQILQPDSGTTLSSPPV

One may read the IC50 as the concentration needed to halve the response being measured. Lower therefore signals higher potency. `Cn1cc(-c2cc(-c3ccc(N4CCN(C(=O)C5(c6ccc(Cl)cc6Cl)CC5)CC4)nc3)c3c(C#N)cnn3c2)cn1` [Example 343, 4-(6-(4-(1-(2,4-dichlorophenyl)cyclopropanecarbonyl)piperazin-1-yl)pyridin-3-yl)-6-(1-methyl-1H-pyrazol-4-yl)pyrazolo[1,5-a]pyridine-3-carbonitrile] came in with a half-inhibitory concentration (IC50) (10% FBS) of 1660 nM. For `Cn1cc(-c2cc(-c3ccc(N4CCN(CC(=O)N5CCCC5)CC4)nc3)c3c(C#N)cnn3c2)cn1` [Example 145, 6-(1-methyl-1H-pyrazol-4-yl)-4-(6-(4-(2-oxo-2-(pyrrolidin-1-yl)ethyl)piperazin-1-yl)pyridin-3-yl)pyrazolo[1,5-a]pyridine-3-carbonitrile 2,2,2-trifluoroacetate], the IC50 (10% FBS) is 682 nM. Turning to `Cn1cc(-c2cc(-c3ccc(N4CCC5(CC4)CN(C(=O)OC4CCCC4)C5)nc3)c3c(C#N)cnn3c2)cn1` [Example 499, Cyclopentyl 7-(5-(3-cyano-6-(1-methyl-1H-pyrazol-4-yl)pyrazolo[1,5-a]pyridin-4-yl)pyridine-2-yl)-2,7-diazaspiro[3.5]nonane-2-carboxylate], the 50% inhibitory concentration (IC50) turned out to be 462 nM.

As to `Cn1cc(-c2cc(-c3ccc(N4CCN(CCOC5CC5)CC4)nc3)c3c(C#N)cnn3c2)cn1` [Example 407, 4-(6-(4-(2-cyclopropoxyethyl)piperazin-1-yl)pyridin-3-yl)-6-(1-methyl-1H-pyrazol-4-yl)pyrazolo[1,5-a]pyridine-3-carbonitrile], the midpoint of inhibition, the IC50, lay at 828 nM.

On to `CN(C)C(=O)N1CCN(c2ccc(-c3cc(-c4cnn(C)c4)cn4ncc(C#N)c34)cn2)CC1` [Example 132, 4-(5-(3-cyano-6-(1-methyl-1H-pyrazol-4-yl)pyrazolo[1,5-a]pyridin-4-yl)pyridin-2-yl)-N,N-dimethylpiperazine-1-carboxamide], for which the IC50 (10% FBS) was found to be 1150 nM. `Cn1cc(-c2cc(-c3ccc(N4CCN(C[C@H](O)c5ccccc5)CC4)nc3)c3c(C#N)cnn3c2)cn1` [Example 161, (R)-4-(6-(4-(2-hydroxy-2-phenylethyl)piperazin-1-yl)pyridin-3-yl)-6-(1-methyl-1H-pyrazol-4-yl)pyrazolo[1,5-a]pyridine-3-carbonitrile] gave a half-inhibitory concentration (IC50) (10% FBS) of 48.5 nM. In turn, `Cn1cc(-c2cc(-c3ccc(N4CC5(CCOCC5)C4)nc3)c3c(C#N)cnn3c2)cn1` [Example 527, 4-(6-(7-oxa-2-azaspiro[3.5]nonan-2-yl)pyridin-3-yl)-6-(1-methyl-1H-pyrazol-4-yl)pyrazolo[1,5-a]pyridine-3-carbonitrile 2,2,2-trifluoroacetate] registered a half-maximal inhibitory concentration (IC50) of 918 nM. On to `CN(C)c1ccccc1CN1CCN(c2ccc(-c3cc(-c4cnn(C)c4)cn4ncc(C#N)c34)cn2)CC1` [Example 460, 4-(6-(4-(2-(dimethylamino)benzyl)piperazin-1-yl)pyridin-3-yl)-6-(1-methyl-1H-pyrazol-4-yl)pyrazolo[1,5-a]pyridine-3-carbonitrile], for which it took 1780 nM to reach half-maximal inhibition (IC50).

`Cn1cc(-c2cc(-c3ccc(N4CCC5(CC4)CC(N)C5)nc3)c3c(C#N)cnn3c2)cn1` [Example 544, 4-(6-(2-amino-7-azaspiro[3.5]nonan-7-yl)pyridin-3-yl)-6-(1-methyl-1H-pyrazol-4-yl)pyrazolo[1,5-a]pyridine-3-carbonitrile dihydrochloride] yielded a concentration for half-maximal inhibition (IC50) of 234 nM.

Consider `Cn1cc(-c2cc(-c3ccc(N4CCN(C(=O)Cc5ccc(F)cn5)CC4)nc3)c3c(C#N)cnn3c2)cn1` [Example 360, 4-(6-(4-(2-(5-fluoropyridin-2-yl)acetyl)piperazin-1-yl)pyridin-3-yl)-6-(1-methyl-1H-pyrazol-4-yl)pyrazolo[1,5-a]pyridine-3-carbonitrile bis(2,2,2-trifluoroacetate)], for which half-maximal inhibition (10% FBS) (IC50) was put at 385 nM. `Cn1cc(-c2cc(-c3ccc(N4CCN(C(=O)N5CCC(C)(C)C5)CC4)nc3)c3c(C#N)cnn3c2)cn1` [Example 118, 4-(6-(4-(3,3-dimethylpyrrolidine-1-carbonyl)piperazin-1-yl)pyridin-3-yl)-6-(1-methyl-1H-pyrazol-4-yl)pyrazolo[1,5-a]pyridine-3-carbonitrile] registered an IC50 (10% FBS) of 606 nM. Compound `Cn1cc(-c2cc(-c3ccc(N4CCN(S(=O)(=O)CC5CC5)CC4)nc3)c3c(C#N)cnn3c2)cn1` [Example 87, 4-(6-(4-((cyclopropylmethyl)sulfonyl)piperazin-1-yl)pyridin-3-yl)-6-(1-methyl-1H-pyrazol-4-yl)pyrazolo[1,5-a]pyridine-3-carbonitrile] displayed a half-maximal inhibitory concentration (IC50) (10% FBS) of 5.8 nM.

Compound `Cn1cc(-c2cc(-c3ccc(N4CCN(C(=O)NC5CCOCC5)CC4)nc3)c3c(C#N)cnn3c2)cn1` [Example 121, 4-(5-(3-cyano-6-(1-methyl-1H-pyrazol-4-yl)pyrazolo[1,5-a]pyridin-4-yl)pyridin-2-yl)-N-(tetrahydro-2H-pyran-4-yl)piperazine-1-carboxamide] showed an IC50 (10% FBS) of 1340 nM. Under “10% FBS”, `CO[C@H](C(=O)N1CCN(c2ccc(-c3cc(-c4cnn(C)c4)cn4ncc(C#N)c34)cn2)CC1)c1ccccc1` [Example 84] yielded an IC50 of 1260 nM. `Cn1cc(-c2cc(-c3ccc(N4CC5(CCN(Cc6ccccc6)CC5)C4)nc3)c3c(C#N)cnn3c2)cn1` [Example 485, 4-(6-(7-benzyl-2,7-diazaspiro[3.5]nonan-2-yl)pyridin-3-yl)-6-(1-methyl-1H-pyrazol-4-yl)pyrazolo[1,5-a]pyridine-3-carbonitrile]: half-maximal inhibition (IC50) was put at 4800 nM.

`Cn1cc(-c2cc(-c3ccc(N4CCN(C[C@@H](O)c5ccccc5)CC4)nc3)c3c(C#N)cnn3c2)cn1` [Example 162, (S)-4-(6-(4-(2-hydroxy-2-phenylethyl)piperazin-1-yl)pyridin-3-yl)-6-(1-methyl-1H-pyrazol-4-yl)pyrazolo[1,5-a]pyridine-3-carbonitrile] came in with a half-maximal inhibitory concentration (IC50) (10% FBS) of 42 nM. On the same count and under the same terms, the figure for `Cn1cc(-c2cc(-c3ccc(N4CCN([C@@H]5CCC[C@H]5O)CC4)nc3)c3c(C#N)cnn3c2)cn1` [Example 163, 4-(6-(4-((1r,2r)-2-hydroxycyclopentyl)piperazin-1-yl)pyridin-3-yl)-6-(1-methyl-1H-pyrazol-4-yl)pyrazolo[1,5-a]pyridine-3-carbonitrile] is 991 nM. With `Cn1cc(-c2cc(-c3ccc(N4CCC(C(=O)NOCC5CC5)CC4)nc3)c3c(C#N)cnn3c2)cn1` [Example 563, 1-(5-(3-cyano-6-(1-methyl-1H-pyrazol-4-yl)pyrazolo[1,5-a]pyridin-4-yl)pyridin-2-yl)-N-(cyclopropylmethoxy)piperidine-4-carboxamide], the IC50 worked out at 195 nM. For the setting “10% FBS”, `Cn1cc(-c2cc(-c3ccc(N4CC5CCC(C4)N5C(=O)OC(C)(C)C)nc3)c3c(C#N)cnn3c2)cn1` [Example 173, tert-butyl 3-(5-(3-cyano-6-(1-methyl-1H-pyrazol-4-yl)pyrazolo[1,5-a]pyridin-4-yl)pyridin-2-yl)-3,8-diazabicyclo[3.2.1]octane-8-carboxylate] came in with a half-inhibitory concentration (IC50) of 1270 nM. In turn, `Cn1cc(-c2cc(-c3ccc(N4CCN(C(=O)N[C@@H]5CCOC5)CC4)nc3)c3c(C#N)cnn3c2)cn1` [Example 106, (R)-4-(5-(3-cyano-6-(1-methyl-1H-pyrazol-4-yl)pyrazolo[1,5-a]pyridin-4-yl)pyridin-2-yl)-N-(tetrahydrofuran-3-yl)piperazine-1-carboxamide] showed an IC50 (10% FBS) of 1370 nM.
